# Reference: ChEMBL document CHEMBL1201862, “PubChem BioAssay data set” (2004)
# Activity calls are given as the source filed them.
# How the values were obtained:
# [1] = inhibitors of HIV Env-driven cell fusion, dose response, cherry-pick (AID 652057); type: functional, cell-based
# [2] = ZM109 Env clade C HIV-1 fusion inhibitors, dose response, HeLa effector, CEM target cells, luciferase, cherry-pick (AID 652058); type: functional, cell-based
# [3] = inhibitors of clade B AD8 Env fusion, dose response, cell-based, cherry-pick (AID 652062); type: functional;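 further: luciferase signal from cell-cell fusion driven by HIV-1 clade B AD8 Env; potency is for inhibitors of fusion seen as a drop in luminescence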
# [4] = biological target: T1, Polyadenylate-binding protein 1 (Homo sapiens, UniProt P11940); experiment: PABP1 MLLE–PAM2 binding inhibitor potency, dose response, biochemical, fluorescence polarization, FITC-PAM2 peptide (AID 602259); type: functional; conditions: read-out: IC50_Mean
# Leucine aminopeptidase = biological target: T2, Leucine aminopeptidase (Plasmodium falciparum 3D7, UniProt Q8IL11); experiment: P. falciparum M17LAP inhibitors, primary screen, biochemical, fluorogenic H-Leu-NHMec substrate, 1536-well (AID 1619); type: functional
# T2 sequence (Q8IL11 whole entry): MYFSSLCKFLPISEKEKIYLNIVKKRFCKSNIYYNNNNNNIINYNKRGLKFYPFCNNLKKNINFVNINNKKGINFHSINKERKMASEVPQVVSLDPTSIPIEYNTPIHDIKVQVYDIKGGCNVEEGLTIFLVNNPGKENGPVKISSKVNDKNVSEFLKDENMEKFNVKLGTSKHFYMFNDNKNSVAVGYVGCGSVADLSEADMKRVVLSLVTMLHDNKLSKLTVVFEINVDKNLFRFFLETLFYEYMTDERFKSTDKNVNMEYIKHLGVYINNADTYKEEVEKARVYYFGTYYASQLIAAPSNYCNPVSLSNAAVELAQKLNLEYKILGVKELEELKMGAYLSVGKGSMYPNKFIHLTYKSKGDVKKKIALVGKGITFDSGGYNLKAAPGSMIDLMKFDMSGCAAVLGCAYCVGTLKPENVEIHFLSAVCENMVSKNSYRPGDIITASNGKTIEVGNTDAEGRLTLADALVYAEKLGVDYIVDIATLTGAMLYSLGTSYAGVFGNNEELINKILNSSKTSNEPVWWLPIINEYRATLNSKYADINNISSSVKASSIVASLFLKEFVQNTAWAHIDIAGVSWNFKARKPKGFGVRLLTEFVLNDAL
# [5] = biological target: T1, Polyadenylate-binding protein 1; experiment: PABP1 MLLE–PAM2 interaction inhibitors, dose response, miRNA deadenylation inhibitor project, biochemical, fluorescence polarization, Cy5-PAM2 peptide, secondary (AID 602260); type: functional; conditions: read-out: IC50_Mean
# Beta-galactosidase = Beta-galactosidase (Escherichia coli, UniProt Q8VNN2); experiment: Dose response counterscreen for EBI2 assay utilizing the enzyme, b-galactosidase.; type: functional
# [6] = biological target: T3, DNA repair protein RAD52 homolog (Homo sapiens, UniProt P43351); type: functional, biochemical
# T3 sequence (P43351 whole entry): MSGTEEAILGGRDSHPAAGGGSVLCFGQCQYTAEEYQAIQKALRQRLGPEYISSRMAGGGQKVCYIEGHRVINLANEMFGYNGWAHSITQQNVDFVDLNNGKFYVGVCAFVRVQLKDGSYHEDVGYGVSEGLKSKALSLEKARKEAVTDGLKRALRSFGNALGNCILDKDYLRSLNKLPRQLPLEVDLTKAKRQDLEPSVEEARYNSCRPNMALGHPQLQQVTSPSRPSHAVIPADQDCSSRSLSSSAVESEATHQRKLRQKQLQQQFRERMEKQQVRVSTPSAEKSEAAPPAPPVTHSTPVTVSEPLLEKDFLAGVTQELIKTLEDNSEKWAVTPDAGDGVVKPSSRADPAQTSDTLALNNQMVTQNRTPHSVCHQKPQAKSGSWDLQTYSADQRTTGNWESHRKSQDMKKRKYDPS
# Nonstructural protein 1 = Nonstructural protein 1 (Influenza A virus, UniProt Q194T2); type: functional, Influenza A virus (A/California/07/2009(H1N1))
# [7] = biological target: T4, Rac GTPase-activating protein 1 (Homo sapiens, UniProt Q9H0H5); experiment: MgcRacGAP GTPase-activating activity inhibitors, confirmation, biochemical, ADP Hunter fluorescence, primary and confirmatory (AID 624330); type: functional
# T4 sequence (Q9H0H5 whole entry): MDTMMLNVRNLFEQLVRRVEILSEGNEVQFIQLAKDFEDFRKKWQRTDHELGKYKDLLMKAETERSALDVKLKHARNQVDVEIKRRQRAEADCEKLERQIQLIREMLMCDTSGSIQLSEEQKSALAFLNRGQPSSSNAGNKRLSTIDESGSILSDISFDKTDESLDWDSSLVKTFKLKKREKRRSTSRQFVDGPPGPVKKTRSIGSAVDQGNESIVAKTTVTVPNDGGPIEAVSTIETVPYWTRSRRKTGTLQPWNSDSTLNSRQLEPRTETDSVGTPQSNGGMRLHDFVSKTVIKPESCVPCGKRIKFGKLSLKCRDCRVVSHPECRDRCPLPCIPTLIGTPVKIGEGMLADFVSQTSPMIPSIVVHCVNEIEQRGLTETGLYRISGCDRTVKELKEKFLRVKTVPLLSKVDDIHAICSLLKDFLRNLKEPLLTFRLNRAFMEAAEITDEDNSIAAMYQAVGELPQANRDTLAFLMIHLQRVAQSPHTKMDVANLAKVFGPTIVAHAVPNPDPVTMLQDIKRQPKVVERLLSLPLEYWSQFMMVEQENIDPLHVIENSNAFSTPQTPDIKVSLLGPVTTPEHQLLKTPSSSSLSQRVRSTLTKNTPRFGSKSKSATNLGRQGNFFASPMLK
# [8] = HeLa cell cytotoxicity, dose response, cytotoxicity control for MgcRacGAP inhibitor project (AID 624300); type: functional
# [9] = biological target: T5, High affinity choline transporter 1 (Homo sapiens, UniProt Q9GZV3); experiment: CHT inhibitors, dose response, cell-based, 5-point CRC, membrane potential dye (AID 504840); type: functional
# T5 sequence (Q9GZV3 whole entry): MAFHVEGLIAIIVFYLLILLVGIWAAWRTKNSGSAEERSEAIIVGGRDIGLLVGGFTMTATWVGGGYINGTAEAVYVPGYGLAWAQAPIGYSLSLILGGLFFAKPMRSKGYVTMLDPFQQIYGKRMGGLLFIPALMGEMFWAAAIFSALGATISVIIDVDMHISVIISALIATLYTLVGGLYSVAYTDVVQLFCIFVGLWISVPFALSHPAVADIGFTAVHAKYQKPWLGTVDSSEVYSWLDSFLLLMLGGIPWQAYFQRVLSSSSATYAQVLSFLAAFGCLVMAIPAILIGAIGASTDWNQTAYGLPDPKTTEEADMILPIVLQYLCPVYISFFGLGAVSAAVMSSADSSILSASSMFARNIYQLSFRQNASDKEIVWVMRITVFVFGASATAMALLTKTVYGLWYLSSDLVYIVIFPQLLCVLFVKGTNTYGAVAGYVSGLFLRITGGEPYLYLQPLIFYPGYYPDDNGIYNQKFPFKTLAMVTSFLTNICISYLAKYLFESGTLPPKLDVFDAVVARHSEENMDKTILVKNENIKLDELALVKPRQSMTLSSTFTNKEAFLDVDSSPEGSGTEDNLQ
# [10] = intracellular Trypanosoma cruzi inhibitors in host cells – cell-based, plate reader, cherry-pick samples, set 3, dose response (AID 651818); type: functional;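 further: compounds incubated with infected cells for about four days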
# [11] = biological target: Induced myeloid leukemia cell differentiation protein Mcl-1 (Homo sapiens, UniProt Q07820); type: functional
# [12] = biological target: FAD-linked sulfhydryl oxidase ALR (Homo sapiens, UniProt P55789); experiment: inhibitors of human ALR sulfhydryl oxidase, dose response, biochemical, H2O2 detection, luminescence, cherry-pick (AID 493248)
# Large T antigen = Large T antigen (Simian virus 40, UniProt P03070); type: functional, Betapolyomavirus macacae;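 further: Confirmatory-stage PubChem screen for compounds that inhibit SV40 T antigen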
# Paired box protein Pax-8 = Paired box protein Pax-8 (Homo sapiens, UniProt Q06710); experiment: inhibitors of PAX8-driven TPO luciferase reporter, dose response, RMG-I cells, cherry-pick (AID 687027); type: functional, cell-based;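 further: luciferase reporter driven by Pax8 target thyroperoxidase promoter measured by SteadyGlo luminescence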
# [13] = biological target: T6, Small ubiquitin-related modifier 1 (Homo sapiens, UniProt P63165); experiment: inhibitors of SUMO1 peptide binding, dose response, biochemical, fluorescence polarization, uHTS hits (AID 624382); type: functional; conditions: read-out: IC50_Mean
# [14] = biological target: T6, Small ubiquitin-related modifier 1; experiment: inhibitors of SUMO1 partner interactions, dose response, biochemical, FRET (AID 624383); type: functional; conditions: read-out: IC50_Mean
# [15] = microbe, parasite or virus in culture; type: functional; conditions: Mycobacterium tuberculosis
# [16] = biological target: 26S proteasome non-ATPase regulatory subunit 14 (Homo sapiens, UniProt O00487); experiment: inhibition of proteasome subunit RPN11 – biochemical, fluorescence polarization, uHTS hits, confirmation (AID 602368); type: functional
# [17] = biological target: 72 kDa type IV collagenase (Homo sapiens, UniProt P08253); experiment: Dose Response validation of uHTS RPN11 inhibitor hits using a MMP-2 Fluorescence assay.; type: functional
# Prothrombin = Prothrombin (Bos taurus, UniProt P00735); experiment: thrombin inhibition, dose response, biochemical, fluorescence polarization, uHTS hits (AID 602369); type: functional
# [18] = biological target: T7, Probable nicotinate-nucleotide adenylyltransferase (Staphylococcus aureus (strain N315), UniProt P65502); type: functional, Staphylococcus aureus subsp. aureus N315; conditions: read-out: IC50_Mean;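 on IC50 Mean: confirmatory dose-response retesting of NadD inhibitor hits first found in an ultra-high-throughput screen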
# [19] = biological target: T7, Probable nicotinate-nucleotide adenylyltransferase; type: functional, Staphylococcus aureus subsp. aureus N315
# Sequence of Beta-galactosidase (Q8VNN2 whole entry): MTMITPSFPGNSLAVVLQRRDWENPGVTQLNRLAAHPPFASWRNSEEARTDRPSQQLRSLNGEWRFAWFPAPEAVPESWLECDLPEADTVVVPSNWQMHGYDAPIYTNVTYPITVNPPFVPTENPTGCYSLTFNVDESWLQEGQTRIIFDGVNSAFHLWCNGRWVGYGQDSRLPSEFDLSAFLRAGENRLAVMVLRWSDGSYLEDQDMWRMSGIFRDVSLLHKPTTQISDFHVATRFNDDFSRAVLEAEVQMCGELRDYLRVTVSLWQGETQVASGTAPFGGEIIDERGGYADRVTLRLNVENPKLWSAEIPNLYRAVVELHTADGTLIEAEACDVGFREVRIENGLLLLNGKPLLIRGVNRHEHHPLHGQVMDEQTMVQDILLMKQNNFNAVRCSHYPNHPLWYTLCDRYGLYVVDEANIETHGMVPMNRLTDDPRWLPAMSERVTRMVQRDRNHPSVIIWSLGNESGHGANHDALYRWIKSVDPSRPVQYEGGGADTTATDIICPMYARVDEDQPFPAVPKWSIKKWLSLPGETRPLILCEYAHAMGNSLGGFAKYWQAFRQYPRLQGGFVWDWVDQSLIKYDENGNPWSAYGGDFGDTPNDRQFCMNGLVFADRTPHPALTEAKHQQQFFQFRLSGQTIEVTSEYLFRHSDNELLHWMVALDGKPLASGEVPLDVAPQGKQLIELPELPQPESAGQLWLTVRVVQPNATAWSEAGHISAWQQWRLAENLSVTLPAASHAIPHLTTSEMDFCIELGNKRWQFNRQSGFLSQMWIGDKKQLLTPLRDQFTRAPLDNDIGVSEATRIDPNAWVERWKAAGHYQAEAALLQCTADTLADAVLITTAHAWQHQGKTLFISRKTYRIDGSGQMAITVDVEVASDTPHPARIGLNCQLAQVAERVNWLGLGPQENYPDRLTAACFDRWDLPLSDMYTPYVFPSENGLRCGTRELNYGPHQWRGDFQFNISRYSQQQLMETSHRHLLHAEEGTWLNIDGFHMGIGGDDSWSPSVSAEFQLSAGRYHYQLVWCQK
# T6 sequence (P63165 whole entry): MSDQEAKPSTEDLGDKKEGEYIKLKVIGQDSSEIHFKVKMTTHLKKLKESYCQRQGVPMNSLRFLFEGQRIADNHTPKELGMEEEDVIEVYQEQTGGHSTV
# Sequence of Induced myeloid leukemia cell differentiation protein Mcl-1 (Q07820 whole entry): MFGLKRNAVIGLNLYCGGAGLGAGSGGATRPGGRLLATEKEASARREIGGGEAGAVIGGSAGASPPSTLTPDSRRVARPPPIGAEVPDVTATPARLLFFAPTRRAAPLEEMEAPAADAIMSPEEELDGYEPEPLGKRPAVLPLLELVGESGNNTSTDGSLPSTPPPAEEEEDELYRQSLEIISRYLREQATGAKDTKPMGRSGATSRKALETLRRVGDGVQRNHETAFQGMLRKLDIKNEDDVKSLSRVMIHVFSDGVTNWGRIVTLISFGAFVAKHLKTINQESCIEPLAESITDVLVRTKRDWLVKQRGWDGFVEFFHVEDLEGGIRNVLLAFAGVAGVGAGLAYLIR
# T7 sequence (P65502 whole entry): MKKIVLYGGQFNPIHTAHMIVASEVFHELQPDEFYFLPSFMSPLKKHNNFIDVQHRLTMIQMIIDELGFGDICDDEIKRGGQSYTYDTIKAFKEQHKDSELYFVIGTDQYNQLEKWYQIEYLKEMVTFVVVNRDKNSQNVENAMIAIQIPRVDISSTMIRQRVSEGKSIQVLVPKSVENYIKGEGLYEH
# Sequence of 72 kDa type IV collagenase (P08253 whole entry): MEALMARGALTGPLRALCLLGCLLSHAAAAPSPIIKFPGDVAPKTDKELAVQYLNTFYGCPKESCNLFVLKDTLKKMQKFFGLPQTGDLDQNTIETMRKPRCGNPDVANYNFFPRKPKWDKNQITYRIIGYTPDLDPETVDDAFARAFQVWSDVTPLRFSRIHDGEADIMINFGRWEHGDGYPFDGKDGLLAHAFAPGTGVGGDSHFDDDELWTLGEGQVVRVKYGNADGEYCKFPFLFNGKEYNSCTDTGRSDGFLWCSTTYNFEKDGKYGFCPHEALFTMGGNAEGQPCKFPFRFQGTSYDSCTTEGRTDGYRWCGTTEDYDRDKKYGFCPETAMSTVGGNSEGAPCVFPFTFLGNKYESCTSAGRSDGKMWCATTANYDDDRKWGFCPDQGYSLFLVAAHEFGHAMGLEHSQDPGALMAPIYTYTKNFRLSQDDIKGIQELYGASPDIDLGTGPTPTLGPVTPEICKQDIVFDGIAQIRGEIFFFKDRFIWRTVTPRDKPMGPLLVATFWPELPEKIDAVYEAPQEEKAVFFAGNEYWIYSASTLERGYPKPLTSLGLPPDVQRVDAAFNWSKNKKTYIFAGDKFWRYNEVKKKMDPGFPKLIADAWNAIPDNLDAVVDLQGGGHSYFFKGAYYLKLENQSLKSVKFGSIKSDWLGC
# Sequence of Large T antigen (P03070 whole entry): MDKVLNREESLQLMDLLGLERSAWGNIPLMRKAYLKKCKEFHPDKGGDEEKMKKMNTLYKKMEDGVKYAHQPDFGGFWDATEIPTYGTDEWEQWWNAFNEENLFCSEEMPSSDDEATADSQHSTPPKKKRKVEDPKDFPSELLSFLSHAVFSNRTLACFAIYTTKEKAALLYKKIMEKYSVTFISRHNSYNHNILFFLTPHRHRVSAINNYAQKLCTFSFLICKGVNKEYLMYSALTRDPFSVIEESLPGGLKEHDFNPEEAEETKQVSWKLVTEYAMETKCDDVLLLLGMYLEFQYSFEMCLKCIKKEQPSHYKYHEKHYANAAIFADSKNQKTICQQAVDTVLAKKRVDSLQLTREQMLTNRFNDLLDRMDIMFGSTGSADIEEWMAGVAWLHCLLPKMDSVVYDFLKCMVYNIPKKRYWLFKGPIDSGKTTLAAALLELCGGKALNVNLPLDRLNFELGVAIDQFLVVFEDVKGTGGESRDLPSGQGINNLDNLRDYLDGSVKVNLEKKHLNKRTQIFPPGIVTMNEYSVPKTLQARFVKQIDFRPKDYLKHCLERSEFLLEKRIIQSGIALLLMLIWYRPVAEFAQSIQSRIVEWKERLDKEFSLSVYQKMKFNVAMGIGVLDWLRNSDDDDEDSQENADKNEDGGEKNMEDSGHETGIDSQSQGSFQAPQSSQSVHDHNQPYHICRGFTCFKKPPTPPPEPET
# T1 sequence (P11940 whole entry): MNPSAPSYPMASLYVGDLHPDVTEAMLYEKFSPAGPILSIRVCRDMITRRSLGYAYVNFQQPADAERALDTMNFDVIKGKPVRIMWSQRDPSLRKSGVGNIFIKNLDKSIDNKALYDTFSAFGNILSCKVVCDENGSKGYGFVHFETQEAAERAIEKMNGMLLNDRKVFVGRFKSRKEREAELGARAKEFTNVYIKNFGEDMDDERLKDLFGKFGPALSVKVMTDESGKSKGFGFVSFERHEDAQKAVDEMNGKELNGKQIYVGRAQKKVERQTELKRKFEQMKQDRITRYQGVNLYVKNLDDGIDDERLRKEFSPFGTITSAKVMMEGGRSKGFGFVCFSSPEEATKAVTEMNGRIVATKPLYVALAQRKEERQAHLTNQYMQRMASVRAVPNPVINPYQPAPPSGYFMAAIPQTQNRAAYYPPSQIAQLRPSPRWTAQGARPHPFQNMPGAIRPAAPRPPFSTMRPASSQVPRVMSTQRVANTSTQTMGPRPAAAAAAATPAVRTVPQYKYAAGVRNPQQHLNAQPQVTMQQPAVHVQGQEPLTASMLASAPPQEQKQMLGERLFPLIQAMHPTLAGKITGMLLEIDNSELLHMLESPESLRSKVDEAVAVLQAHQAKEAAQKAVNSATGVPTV
# Sequence of 26S proteasome non-ATPase regulatory subunit 14 (O00487 whole entry): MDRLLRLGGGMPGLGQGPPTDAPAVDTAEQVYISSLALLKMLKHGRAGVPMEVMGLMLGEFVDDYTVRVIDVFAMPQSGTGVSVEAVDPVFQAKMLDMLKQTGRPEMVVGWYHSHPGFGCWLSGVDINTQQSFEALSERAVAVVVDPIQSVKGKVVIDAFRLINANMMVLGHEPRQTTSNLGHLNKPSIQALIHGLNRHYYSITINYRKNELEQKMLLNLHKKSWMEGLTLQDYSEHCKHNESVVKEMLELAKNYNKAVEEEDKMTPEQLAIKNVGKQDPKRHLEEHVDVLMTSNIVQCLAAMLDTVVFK
# Sequence of FAD-linked sulfhydryl oxidase ALR (P55789 whole entry): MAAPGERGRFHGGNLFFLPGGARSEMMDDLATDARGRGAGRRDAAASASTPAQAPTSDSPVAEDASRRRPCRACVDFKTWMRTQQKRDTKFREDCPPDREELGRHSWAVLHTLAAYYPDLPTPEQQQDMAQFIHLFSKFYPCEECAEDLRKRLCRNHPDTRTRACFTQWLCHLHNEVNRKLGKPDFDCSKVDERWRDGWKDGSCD
# Sequence of Paired box protein Pax-8 (Q06710 whole entry): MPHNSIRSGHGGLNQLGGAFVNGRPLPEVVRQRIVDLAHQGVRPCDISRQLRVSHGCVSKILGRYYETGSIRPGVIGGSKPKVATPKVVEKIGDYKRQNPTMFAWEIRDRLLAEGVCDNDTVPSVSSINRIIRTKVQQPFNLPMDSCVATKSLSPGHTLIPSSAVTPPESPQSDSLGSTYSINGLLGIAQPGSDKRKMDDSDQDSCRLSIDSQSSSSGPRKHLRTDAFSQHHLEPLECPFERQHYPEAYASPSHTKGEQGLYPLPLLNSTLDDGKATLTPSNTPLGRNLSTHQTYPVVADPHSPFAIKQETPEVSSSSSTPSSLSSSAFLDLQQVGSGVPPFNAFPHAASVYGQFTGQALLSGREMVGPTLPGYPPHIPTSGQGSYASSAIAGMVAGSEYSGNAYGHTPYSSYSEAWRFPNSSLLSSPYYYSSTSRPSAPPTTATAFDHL
# Sequence of Nonstructural protein 1 (Q194T2 whole entry): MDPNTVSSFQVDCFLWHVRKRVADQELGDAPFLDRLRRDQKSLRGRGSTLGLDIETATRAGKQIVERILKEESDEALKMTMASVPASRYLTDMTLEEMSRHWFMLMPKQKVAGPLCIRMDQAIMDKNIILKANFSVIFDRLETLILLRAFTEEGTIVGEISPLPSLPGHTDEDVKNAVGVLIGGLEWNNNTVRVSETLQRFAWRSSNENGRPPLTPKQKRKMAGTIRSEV
compound,measurement,setting,value
COc1ccccc1CNC(=O)C[C@H]1C[C@@H]2c3cc(NS(=O)(=O)c4ccc(F)cc4)ccc3O[C@@H]2[C@H](CO)O1,AC50,[1],< 0.26 µM (active)
same,AC50,[2],< 0.26 µM (active)
same,AC50,[3],< 260 nM (active)
COc1ccc(NC(=O)CSc2nc(O)c(Cc3ccccc3)c(=O)[nH]2)cc1,IC50,[4],> 66 µM (inactive)
same,IC50,Leucine aminopeptidase,10.2 µM (active)
same,IC50,[5],> 66 µM (inactive)
Cc1cc(C)c(S(=O)(=O)N2CCN(C(=O)c3ccc(-n4nc(C)c(Cl)c4C)cc3)CC2)c(C)c1,IC50,Beta-galactosidase,> 80 µM (inactive)
Cc1ccc(NCCN(C)C)c2c(=O)c3cc(O)ccc3sc12,AC50,[6],320 nM (active)
same,IC50,Nonstructural protein 1,21.7 µM (active)
same,IC50,[7],24 µM (active)
same,CC50,[8],27.7 µM (active)
CC(C)(C)NC(=O)NC(=O)CN1CCC(Cc2ccccc2)CC1,IC50,[9],12 µM (active)
C[C@@H]1CN([C@H](C)CO)C(=O)c2cccc(NC(=O)CCCCCC(=O)Nc3ccccc3N)c2O[C@@H]1CN(C)Cc1ccc(C(F)(F)F)cc1,AC50,[10],2.34 µM (active)
Cc1ccc(S(=O)(=O)CCC(=O)OC(C)C(=O)N2CCc3ccccc32)cc1 (stereo unspecified),IC50,[9],12.6 µM (active)
O=c1[nH][nH]c(=O)c2cc(N3CCCC3)ccc12,IC50,Leucine aminopeptidase,70.7 µM (active)
C=CCN(CC=C)S(=O)(=O)c1ccc2nc(NC(=O)C(C)C)sc2c1,IC50,[9],13.8 µM (active)
COc1cc(C(=O)Nc2ccc(N(C)C)cc2)cc(OC)c1OC,IC50,[11],4.78 µM (not active)
same,AC50,[12],1.31 µM (active)
same,IC50,Large T antigen,6.34 µM (active)
COc1ccc(/C=C2/C(=O)NC(=S)N(C3CC3)C2=O)cc1CN1C(=O)c2ccccc2C1=O,IC50,[11],5.54 µM (active)
same,IC50,Large T antigen,48.5 µM (active)
Cc1cc(C)c(NC(=O)CCCCCNC2CCCCC2)c(C)c1,IC50,[9],12.6 µM (active)
CCOC(=O)/C=C/C(=O)Nc1cc(S(=O)(=O)Nc2ccc(OC)cc2)ccc1N1CCOCC1,IC50,Beta-galactosidase,> 80 µM (inactive)
same,AC50,Paired box protein Pax-8,5.42 µM (active)
CCSc1nnc(NC(=O)C2CC=CCC2C(=O)O)s1 (stereo unspecified),IC50,Leucine aminopeptidase,19.9 µM (active)
C[C@@H]1CN([C@@H](C)CO)S(=O)(=O)c2ccc(C3=CCCCC3)cc2O[C@@H]1CN(C)S(=O)(=O)c1ccc(F)cc1,AC50,[1],3.34 µM (active)
same,AC50,[2],1.35 µM (active)
same,AC50,[3],3530 nM (active)
N#C/C(=C\c1ccccc1)C(=O)Nc1cc(S(=O)(=O)N2CCOCC2)ccc1N1CCCC1,IC50,Beta-galactosidase,> 80 µM (inactive)
NC(=O)c1ccc2c(=O)n3c(-c4cc(Cl)c(N)c(Cl)c4)csc3nc2c1,IC50,[13],> 66.6 µM (inactive)
same,IC50,[14],13.4 µM (active)
O=C(/C=C/c1ccc(Cl)cc1)N1CCN(c2ccc(Cl)cc2[N+](=O)[O-])CC1,CC50,[15],> 40 µM (active)
same,IC50,Beta-galactosidase,> 80 µM (inactive)
Cc1ccc(S(=O)(=O)Nc2ccc3c(c2)C(=O)N([C@H](C)CO)C[C@H](C)[C@H](CN(C)S(=O)(=O)c2ccc(Cl)cc2)O3)cc1,AC50,[10],4.35 µM (active)
C[C@@H]1CN([C@@H](C)CO)C(=O)Cc2cc(NC(=O)Nc3ccc(C(F)(F)F)cc3)ccc2O[C@@H]1CN(C)S(=O)(=O)c1ccc(F)cc1,AC50,[10],6.4 µM (active)
COc1ccc(C=C2SC(=S)N(CCCC(=O)Nc3ccc(C(=O)O)c(O)c3)C2=O)cc1OC,IC50,[16],26.2 µM (active)
same,IC50,[17],> 100 µM (inactive)
same,IC50,Prothrombin,35.3 µM (active)
CC1CCCC(C)N1CCCNC(=O)CN1C(=O)c2cccnc2Oc2ccc(Cl)cc21 (stereo unspecified),IC50,[9],13.8 µM (active)
N#CC1=C(S)N=C(N)C(c2nc(-c3ccccc3)cs2)C12CCCCC2 (stereo unspecified),IC50,[18],23.2 µM (active)
same,IC50,[19],10.4 µM (active)
O=c1c(-c2c(O)cc(O)c3c(=O)cc(-c4ccc(O)cc4)oc23)c(-c2ccc(O)cc2)oc2cc(O)cc(O)c12,IC50,[11],2.73 µM (not active)
same,IC50,[13],> 66.6 µM (inactive)
same,IC50,[14],9.2 µM (active)
Cc1ccc(Oc2ncc(-c3ccc(Cl)cc3)cn2)cc1,IC50,Beta-galactosidase,> 80 µM (inactive)
CC(=O)N1CCOc2ccc(S(=O)(=O)N3CCC(C(=O)NCc4ccc(Cl)cc4)CC3)cc21,IC50,Beta-galactosidase,> 80 µM (inactive)
NC(=O)CC(NC(=O)c1ccc(Br)cc1)c1ccc(NC2CCCCCC2)c([N+](=O)[O-])c1 (stereo unspecified),IC50,[16],31.6 µM (active)
same,IC50,[17],> 100 µM (inactive)
same,IC50,Prothrombin,88.5 µM (active)
C[C@H]1CN([C@@H](C)CO)S(=O)(=O)c2ccc(-c3cccc(C#N)c3)cc2O[C@H]1CN(C)Cc1cccc(F)c1,AC50,[1],45.7 µM (active)
same,AC50,[2],43.1 µM (active)
